From US8053197B2, “Methods for detecting and treating autoimmune disorders” (Oregon Health & Science University, priority 2004, dated 2011)

Columns and labels:
[1] = test system: CD4+CD25+ versus CD4+CD25− populations; assay: Proliferation of CD4+CD25+ versus CD4+CD25− populations stimulated with TCR peptide pool or control antigens; format: cell-based, human; settings: HC donors with measurable Treg activity
Text: To establish a connection between TCR-reactive T cells and Treg cells, whether TCR reactivity could be found in the CD4+CD25+ Treg cell subpopulation isolated directly from HC was first determined. Thus, CD4+CD25+ versus CD4+CD25− populations were isolated and stimulated with a pool of eight TCR CDR2 peptides that optimally distinguished differences in IL-10 responses between HC and MS patients (designated as Pool #1), or with control antigens, including Copolymer 1, a pool of neuropeptide antigens, and the recall antigen, TT. […] In addition, five treatment-naïve MS patients had no response to Pool #1 peptides in either the CD4+CD25+ or CD4+CD25− fractions and also had no detectable Treg activity. Six MS patients undergoing standard treatment also lacked response to Pool #1 peptides and Treg activity.

[2] = test system: PBMC; assay: ELISPOT assay of IL-10 and IFN-γ secreting T cells responding to TCR CDR2 peptides; format: cell-based, human; settings: for frequency of IFN-γ secreting cells / frequency of IL-10-secreting T cells: 5 HC donors, single peptide; for IFN-γ response: recognition by MS patients: induced IFN-γ-secreting T cells in all 5 HC; for response of MS patients compared with HC: expanded panel, 3 MS patients vs 5 HC
Protocol: FIGS. 13A-13B PBMC from healthy controls (HC) and MS patients respond differentially to TCR CDR2 peptides. A. Production of IL-10 and IFN-gamma was measured in the PBMC response to TCR BV CDR2 peptides (left) and TCR AV CDR2 peptides (right) representing the entire TCR BV and AV gene repertoire as measured by ELISPOT assay. PBMC responses to ConA were equivalent in HC and MS patients (not shown). B. Summary of cytokine-producing cells in which IL-10 or IFN-gamma production was summed for responses to all BV+AV CDR2 peptides. Total cytokine production represents the summation of IL-10-+IFN-gamma-secreting cells for all peptides. *P<0.05 comparing the frequency in HC vs. MS patients. The HC group consisted of five individuals, three females and two males. The MS patient group consisted of three individuals, two females with relapsing, remitting MS, both symptomatic, and one person with secondary, progressive MS.
To determine antigen-specific T cell frequency by ELISPOT, blood mononuclear cells were separated by Ficoll density gradient centrifugation, resuspended in 2% human AB serum, and aliquotted at 0.5 and 0.25 million cells in triplicate wells of nitrocellulose-coated microliter plates (Becton Dickinson, Franklin Lakes, N.J.) pretreated with anti-IFN-γ (Mabtech, Sweden) or anti-IL-10 (PharMingen, San Diego, Calif.) mAb. Peptides, ConA, and medium were added and the plates incubated at 37C for 24 hours (IFN-γ) or 48 hours (IL-10). Biotin-labeled secondary mAb for each cytokine was added, followed by streptavidin-alkaline phosphatase (Dako Corp., Carpinteria, Calif.) and substrate (BCIP/NBT phosphatase substrate, KPL Laboratories, Gaithersburg, Md.) to develop optimal blue staining. Cytokine spots were quantified using an AID Immunospot Analyzer (AID, Cleveland, Ohio) equipped with a high resolution lens camera and analytical software designed for use with the AID system. Mean spots/well were calculated for each Ag, and net counts established after subtraction of background (no Ag). The frequency of Ag-specific spot-forming cells per million PBMC was determined from the average net response observed at two different cell concentrations. The mean net frequency +SEM was calculated for MS patients and HC, and differences compared by Student's t test for significance (p<0.05).
PBMC were removed from plates by washing with 3× with PBS and 3× with PBS/0.05% Tween, pH 7.6. To each well was added 100 μl of either anti-IFN-γ (1 μg/ml, Mabtech, Sweden) or anti-IL-10 (2 μg/ml, PharMingen, San Diego, Calif.) and incubated for 4 hours at room temperature in the dark. Plates were washed 4× with PBS/Tween, then 100 μl per well of alkaline-phosphatase-conjugated streptavidin (DAKO) (1:1000 of stock) was added and plates were incubated for 45 minutes at room temperature. Plates were washed 4× with PBS/Tween and 6× with PBS, 1 minute each. 100 μl of BCIP/NBT substrate (KPL Laboratories, Gaithersburg, Md.) was added and the color reaction was allowed to develop for 3-7 minutes. Plates were rinsed 3× with distilled water and dried overnight at room temperature.
Plates were scanned with an Immunospot Reader (Cellular Technology Limited, Cleveland, Ohio) with optimized lighting conditions and analyzed according to the predetermined parameters of sensitivity, spot size, and background. The background counts were subtracted, and data was then normalized to cytokine secreting cells per million PBMC plated.
To evaluate native recognition of TCR determinants, the frequency of IL-10 and IFN-γ secreting T cells from the blood of 5 HC (3 females, 2 males, average age 28) was assessed using the ELISPOT assay, to detect responses to a comprehensive panel of 113 unique CDR2 peptides representing nearly all of the AV and BV repertoires (Table 1). Only 3 peptides, AV1 S4A1N1T, BV1551 and BV20S1A1N1, could not be tested due to solubility and toxicity problems. […]

Substance: Glatiramer acetate [Cop-1]
- proliferation of CD4+CD25+ compared with CD4+CD25− population [1]: no proliferative response above background

Substance: KLEEELKFLVYFQNEELIQKA (TCR CDR2 peptide.) [BV10S1P]
- frequency of IFN-γ secreting cells [2]: minimal frequencies
- frequency of IL-10-secreting T cells [2]: > 2000 cells/million PBMC

Substance: ALGQGPQFIFQTYEEEERQRG (TCR CDR2 peptide.) [BV5S2]
- frequencies of IL-10-secreting PBMC in MS patients versus HC [2]: significantly lower

Substance: NQNKEFMLLISFQNEQVLQET (TCR CDR2 peptide.) [BV19S1P]
- frequency of IFN-γ secreting cells [2]: 900 cells/million PBMC

Substance: TT: the recall antigen, TT
- proliferation of CD4+CD25+ compared with CD4+CD25− population [1]: present mainly in the CD4+CD25− fraction

Substance: SSGEMIFLIYQGSYDQQNATE (TCR CDR2 peptide.) [ADV6S1A1N1]
- IFN-γ response: recognition by MS patients [2]: poorly recognized

Substance: DLGHGLRLIHYSYGVQDTNKG (TCR CDR2 peptide.) [BV12S2A1T]
- IFN-γ response: recognition by MS patients [2]: poorly recognized

Substance: DLGHGLRLIHYSYGVKDTNKG (TCR CDR2 peptide.) [BV12S2A2T]
- IFN-γ response: recognition by MS patients [2]: poorly recognized

Substance: YPNQGLQLLLKYTSAATLVKG (TCR CDR2 peptide.) [AV1S2A1N1T]
- response of MS patients compared with HC [2]: as well or better than HC

Substance: KHGEAPVFLMILLKGGEQKGH (TCR CDR2 peptide.) [AV29S1A2T]
- frequency of IL-10-secreting T cells [2]: > 1000 cells/million PBMC
- response of MS patients compared with HC [2]: as well or better than HC
